Source: the NIST ThermoML archive (doi:10.1016/j.jct.2004.11.017)
Numbers after ± are expanded uncertainties.

Experiment: xn = mol fraction of the nth substance listed
Conditions: 101 kPa, Liquid

CC[S+]([O-])CC [diethyl sulfoxide] + O
mass density [kg/m3]
Conditions | 298.15 K | 303.15 K | 308.15 K | 313.15 K | 318.15 K | 323.15 K | 328.15 K | 333.15 K | 338.15 K | 343.15 K
x1 = 0.0997 | 1027.6 ± 1.7 | 1024.2 ± 1.7 | 1020.7 ± 1.6 | 1017.1 ± 1.6 | 1013.4 ± 1.5 | 1009.6 ± 1.4 | 1005.8 ± 1.4 | 1001.8 ± 1.3 | 997.8 ± 1.3 | 993.7 ± 1.4
x1 = 0.1996 | 1038.6 ± 1.9 | 1034.2 ± 1.8 | 1029.8 ± 1.8 | 1025.4 ± 1.7 | 1020.9 ± 1.6 | 1016.3 ± 1.5 | 1011.8 ± 1.5 | 1005.9 ± 1.4 | 1001.3 ± 1.3 | 997.1 ± 1.3
x1 = 0.2517 | 1038.4 ± 1.9 | 1033.7 ± 1.8 | 1029.6 ± 1.8 | 1025 ± 1.7 | 1020.5 ± 1.6 | 1015.8 ± 1.5 | 1011.2 ± 1.5 | 1006.4 ± 1.4 | 1001.7 ± 1.3 | 996.9 ± 1.3
x1 = 0.2978 | 1037.8 ± 1.9 | 1033.3 ± 1.8 | 1028.8 ± 1.7 | 1024.2 ± 1.7 | 1019.6 ± 1.6 | 1015 ± 1.5 | 1010.3 ± 1.5 | 1005.6 ± 1.4 | 1000.8 ± 1.3 | 996 ± 1.4
x1 = 0.3481 | 1035.8 ± 1.9 | 1031.4 ± 1.8 | 1026.8 ± 1.7 | 1022.2 ± 1.6 | 1017.6 ± 1.6 | 1013 ± 1.5 | 1008.3 ± 1.4 | 1003.6 ± 1.3 | 998.9 ± 1.3 | 994.1 ± 1.4
x1 = 0.3946 | 1034.7 ± 1.8 | 1030.2 ± 1.8 | 1025.7 ± 1.7 | 1021.2 ± 1.6 | 1016.6 ± 1.6 | 1012 ± 1.5 | 1007.3 ± 1.4 | 1002.6 ± 1.3 | 997.8 ± 1.3 | 993 ± 1.4
x1 = 0.4496 | 1031.6 ± 1.8 | 1027.2 ± 1.7 | 1022.7 ± 1.7 | 1018.3 ± 1.6 | 1013.8 ± 1.5 | 1009.2 ± 1.4 | 1004.5 ± 1.4 | 999.9 ± 1.3 | 995.2 ± 1.4 | 990.5 ± 1.4
x1 = 0.5053 | 1029.6 ± 1.8 | 1025.1 ± 1.7 | 1020.6 ± 1.6 | 1016.2 ± 1.5 | 1011.7 ± 1.5 | 1007.1 ± 1.4 | 1002.5 ± 1.3 | 997.9 ± 1.3 | 993.2 ± 1.4 | 988.5 ± 1.5
x1 = 0.5962 | 1026.4 ± 1.7 | 1022.1 ± 1.6 | 1017.6 ± 1.6 | 1013.2 ± 1.5 | 1008.7 ± 1.4 | 1004.2 ± 1.4 | 999.6 ± 1.3 | 995 ± 1.4 | 990.4 ± 1.4 | 985.7 ± 1.5
x1 = 0.6971 | 1021.9 ± 1.6 | 1017.5 ± 1.6 | 1013.1 ± 1.5 | 1008.7 ± 1.4 | 1004.3 ± 1.4 | 999.8 ± 1.3 | 995.3 ± 1.4 | 990.8 ± 1.4 | 986.2 ± 1.5 | 981.7 ± 1.6
x1 = 0.8061 | 1018.2 ± 1.6 | 1013.9 ± 1.5 | 1009.6 ± 1.4 | 1005.2 ± 1.4 | 1000.8 ± 1.3 | 996.4 ± 1.3 | 991.9 ± 1.4 | 987.4 ± 1.5 | 982.9 ± 1.6 | 978.4 ± 1.6
x1 = 0.8946 | 1015.3 ± 1.5 | 1011 ± 1.5 | 1006.7 ± 1.4 | 1002.3 ± 1.3 | 997.9 ± 1.3 | 993.5 ± 1.4 | 989.1 ± 1.5 | 984.7 ± 1.5 | 980.2 ± 1.6 | 975.7 ± 1.7
x1 = 1 | 1010.2 ± 1.4 | 1005.8 ± 1.4 | 1001.4 ± 1.3 | 997 ± 1.3 | 992.6 ± 1.4 | 988.2 ± 1.5 | 983.9 ± 1.5 | 979.5 ± 1.6 | 975.1 ± 1.7 | 970.6 ± 1.8
